Experimental data: patent US20260041679A1, “METHOD OF TREATING HYPERTENSION WITH THE ALDOSTERONE SYNTHASE INHIBITOR BAXDROSTAT” (CINCOR PHARMA, INC., priority 2022, published 2026)

Test system: patients with uHTN
Test: Study 124 Part 1: seated SBP in patients with uncontrolled hypertension (Example 9)
Assay type: in vivo, human
Set-up: key to Model-Based Least-Squares Mean Change from Baseline (SBP) / LSMEANS change from baseline (SBP) / Model-Based Least-Square Mean Change from Baseline (SBP): LS mean change from baseline in seated SBP, mmHg
Experimental: Study 124 is a double-blind, placebo-controlled, dose range finding, multicenter study conducted in patients with uHTN receiving background antihypertensive agent(s) that are either an ACEI or an ARB, an ACEI/ARB plus a thiazide diuretic, or an ACEI/ARB plus a calcium channel blocker. The study consists of two parts: Part 1 consists of an 8-week treatment period in which the patients are to be assigned to one of 4 dose groups in equal ratio testing 0.5 mg, 1 mg, and 2 mg baxdrostat effects compared to a placebo. Patients are to administer double-blind baxdrostat tablets once per day while they continue taking the background antihypertensive medications. After 8 weeks of double-blind treatment, patients were to enter part 2 of the study unless the patient was assigned to the 2 mg group and the SBP remains ≥130 mmHg. In part 2 of the study, all patients are to cease dosing with background antihypertensive medication and take only baxdrostat 2 mg dose as a monotherapy for 4 weeks.
Key inclusion criteria include that patients are on a stable regimen of anti-hypertensive agents for at least 8 weeks; and have a seated BP≥140 mmHg. Key exclusion criteria include a seated SBP≥180 mmHg and estimated glomerular filtration rate (eGFR)<30 mL/min/1.73 m^2.
In this table, CI=confidence interval, DBP=diastolic blood pressure, LS=least squares, SBP=systolic blood pressure, SE=standard error. The LS means, CIs, and p-values are from an MMRM model with change from baseline as the dependent variable with randomized treatment, visit, and treatment-by-visit interaction as fixed categorical effects; along with covariates of the baseline value, race (African American versus non-African American), and the type of background antihypertensive regimen. The restricted maximum likelihood estimation (REML) approach will be used with an unstructured covariance matrix and the Kenward-Roger approximation for degrees of freedom.

[1] = 2 mg (N = 9), mITT, Female Non-Hispanic Female Patients
[2] = 2 mg (N = 13), mITT, Non-Hispanic Male Patients
[3] = 2 mg (N = 16), mITT Population for Hispanic Compliant Patients
[4] = 2 mg (N = 16), mITT, Hispanic Male Patients
[5] = 2 mg (N = 19), mITT, Female Hispanic/Latino Patients
[6] = Female Hispanic/Latino, mITT, 0.5 mg, Week 6
[7] = Female Hispanic/Latino, mITT, 0.5 mg, Week 8
[8] = Hispanic or Latino, ITT, 0.5 mg, Week 6
[9] = Hispanic or Latino, ITT, 0.5 mg, Week 8
[10] = Hispanic or Latino, ITT, 1 mg, Week 6
[11] = Hispanic or Latino, ITT, 1 mg, Week 8
[12] = Hispanic or Latino, ITT, 2 mg, Week 6
[13] = Hispanic or Latino, ITT, 2 mg, Week 8
[14] = Placebo (N = 8), mITT Population for Compliance for Black Patients

CCC(=O)N[C@@H]1CCCc2c(-c3ccc4c(c3)CCC(=O)N4C)cncc21 [baxdrostat, (R)—N-(4-(1-methyl-2-oxo-1,2,3,4-tetrahydroquinolin-6-yl)-5,6,7,8-tetrahydroisoquinolin-8-yl) propionamide]
LS Mean Change from Baseline (SE) in SBP (1 mg, Wk 6): −13.5 (1.88) mm Hg
SBP Change from Baseline to Week 8, Mean (2 mg): −19.3 mmHg
SBP Change from Baseline to Week 8, Median (2 mg): −18.0 mmHg
SBP at Week 8, Median (2 mg): 125.0 mmHg
efficacy in adherent Hispanic/Latino patients (2 mg): effective in adherent Hispanic/Latino, but efficacy response was substantially lower
efficacy in the Black/African American subgroup (2 mg): effective
Model-Based Least-Squares Mean Change from Baseline (SBP) (2 mg (N = 9), Week 2, mITT, Female Non-Hispanic Female Patients): −15.6
Model-Based Least-Squares Mean Change from Baseline (SBP) (2 mg (N = 9), Week 4, mITT, Female Non-Hispanic Female Patients): −23.8
Model-Based Least-Squares Mean Change from Baseline (SBP) (2 mg (N = 9), Week 6, mITT, Female Non-Hispanic Female Patients): −26.1
Model-Based Least-Squares Mean Change from Baseline (SBP) (2 mg (N = 9), Week 8, mITT, Female Non-Hispanic Female Patients): −32.8
Comp w/ Placebo at Week 6, Diff (95% CI) [1]: −15.8 (−29.06, −2.47)
Comp w/ Placebo at Week 8, Diff (95% CI) [1]: −19.8 (−29.87, −9.73)
Model-Based Least-Squares Mean Change from Baseline (SBP) (2 mg (N = 13), Week 2, mITT, Non-Hispanic Male Patients): −16.2
Model-Based Least-Squares Mean Change from Baseline (SBP) (2 mg (N = 13), Week 4, mITT, Non-Hispanic Male Patients): −17.4
Model-Based Least-Squares Mean Change from Baseline (SBP) (2 mg (N = 13), Week 6, mITT, Non-Hispanic Male Patients): −21.5
Model-Based Least-Squares Mean Change from Baseline (SBP) (2 mg (N = 13), Week 8, mITT, Non-Hispanic Male Patients): −22.3
Comp w/ Placebo at Week 6, Diff (95% CI) [2]: −11.6 (−22.42, −0.83)
Comp w/ Placebo at Week 8, Diff (95% CI) [2]: −7.4 (−18.32, 3.53)
LSMEANS change from baseline (SBP) (2 mg (N = 16), Week 2, mITT Population for Hispanic Compliant Patients): −4.6
Model-Based Least-Squares Mean Change from Baseline (SBP) (2 mg (N = 16), Week 2, mITT, Hispanic Male Patients): −5.1
LSMEANS change from baseline (SBP) (2 mg (N = 16), Week 4, mITT Population for Hispanic Compliant Patients): −13.9
Model-Based Least-Squares Mean Change from Baseline (SBP) (2 mg (N = 16), Week 4, mITT, Hispanic Male Patients): −14.6
LSMEANS change from baseline (SBP) (2 mg (N = 16), Week 6, mITT Population for Hispanic Compliant Patients): −15.4
Model-Based Least-Squares Mean Change from Baseline (SBP) (2 mg (N = 16), Week 6, mITT, Hispanic Male Patients): −17.5
LSMEANS change from baseline (SBP) (2 mg (N = 16), Week 8, mITT Population for Hispanic Compliant Patients): −22.8
Model-Based Least-Squares Mean Change from Baseline (SBP) (2 mg (N = 16), Week 8, mITT, Hispanic Male Patients): −21.9
Comp w Placebo at Week 6, Diff (95% CI) [3]: −6.0 (−13.91, 2.00)
Comp w Placebo at Week 8, Diff (95% CI) [3]: −6.6 (−13.07, −0.13)
Comp w/ Placebo at Week 6, Diff (95% CI) [4]: −6.2 (−14.14, 1.67)
Comp w/ Placebo at Week 8, Diff (95% CI) [4]: −3.2 (−9.28, 2.87)
Model-Based Least-Squares Mean Change from Baseline (SBP) (2 mg (N = 19), Week 2, mITT, Female Hispanic/Latino Patients): −6.0
Model-Based Least-Squares Mean Change from Baseline (SBP) (2 mg (N = 19), Week 4, mITT, Female Hispanic/Latino Patients): −7.1
Model-Based Least-Squares Mean Change from Baseline (SBP) (2 mg (N = 19), Week 6, mITT, Female Hispanic/Latino Patients): −8.0
Model-Based Least-Squares Mean Change from Baseline (SBP) (2 mg (N = 19), Week 8, mITT, Female Hispanic/Latino Patients): −12.6
Comp w/ Placebo at Week 6, Diff (95% CI) [5]: −1.5 (−13.53, 10.44)
Comp w/ Placebo at Week 8, Diff (95% CI) [5]: 6.5 (−4.02, 16.98)
SBP at Week 8, Mean (2 mg QD, mITT): 126.6 mmHg
SBP LS mean change from baseline (SE), MMRM (2 mg, Week 8): −19.8 (1.67) mm Hg
SBP LS mean difference (SE) vs placebo (2 mg, Week 8): −3.2 (2.23) mmHg
LS Mean Change from Baseline (SE) in SBP (2 mg, Wk 2): −8.8 (1.65) mm Hg
LS Mean Change from Baseline (SE) in SBP (2 mg, Wk 4): −13.6 (1.65) mm Hg
LS Mean Change from Baseline (SE) in SBP (2 mg, Wk 6): −15.7 (1.93) mm Hg
Model-based LS mean change from baseline (LSMEANS) (Female Hispanic/Latino, mITT, 0.5 mg, Week 2): −6.2
Model-based LS mean change from baseline (LSMEANS) (Female Hispanic/Latino, mITT, 0.5 mg, Week 4): −13.4
Comp w/ Placebo, Diff (95% CI) [6]: −4.9 (−16.80, 6.97) 0.412
Model-based LS mean change from baseline (LSMEANS) [6]: −11.3
Comp w/ Placebo, Diff (95% CI) [7]: 3.0 (−7.45, 13.46) 0.567
Model-based LS mean change from baseline (LSMEANS) [7]: −16.1
Model-based LS mean change from baseline (LSMEANS) (Hispanic or Latino, ITT, 0.5 mg, Week 2): −6.9
Model-based LS mean change from baseline (LSMEANS) (Hispanic or Latino, ITT, 0.5 mg, Week 4): −13.0
Comp w/ Placebo, Diff (95% CI) [8]: −4.1 (−10.84, 2.69) 0.235
Model-based LS mean change from baseline (LSMEANS) [8]: −13.3
Comp w/ Placebo, Diff (95% CI) [9]: −1.1 (−4.54, 6.66) 0.709
Model-based LS mean change from baseline (LSMEANS) [9]: −17.1
Model-based LS mean change from baseline (LSMEANS) (Hispanic or Latino, ITT, 1 mg, Week 2): −7.3
Model-based LS mean change from baseline (LSMEANS) (Hispanic or Latino, ITT, 1 mg, Week 4): −8.1
Comp w/ Placebo, Diff (95% CI) [10]: −1.4 (−8.71, 5.92)
Model-based LS mean change from baseline (LSMEANS) [10]: −10.6
Comp w/ Placebo, Diff (95% CI) [11]: 4.0 (−2.00, 10.06)
Model-based LS mean change from baseline (LSMEANS) [11]: −14.1
Model-based LS mean change from baseline (LSMEANS) (Hispanic or Latino, ITT, 2 mg, Week 2): −5.0
Model-based LS mean change from baseline (LSMEANS) (Hispanic or Latino, ITT, 2 mg, Week 4): −10.1
Comp w/ Placebo, Diff (95% CI) [12]: −2.5 (−9.31, 4.24)
Model-based LS mean change from baseline (LSMEANS) [12]: −11.8
Comp w/ Placebo, Diff (95% CI) [13]: 1.9 (−3.69, 7.44)
Model-based LS mean change from baseline (LSMEANS) [13]: −16.3
Model-Based Least-Square Mean Change from Baseline (SBP) (Placebo (N = 8), Week 2, mITT Population for Compliance for Black Patients): −7.7
Model-Based Least-Square Mean Change from Baseline (SBP) (Placebo (N = 8), Week 4, mITT Population for Compliance for Black Patients): −18.3
Model-Based Least-Square Mean Change from Baseline (SBP) (Placebo (N = 8), Week 6, mITT Population for Compliance for Black Patients): −20.6
Model-Based Least-Square Mean Change from Baseline (SBP) (Placebo (N = 8), Week 8, mITT Population for Compliance for Black Patients): −27.6
Comp w/ Placebo at Week 6, Diff (95% CI) [14]: −10.3 (−24.04, 3.43)
Comp w/ Placebo at Week 8, Diff (95% CI) [14]: −13.4 (−25.04, −1.69)
